According to the supplement of paper PMC10307832:

What was measured:
Assay in all cases: relative viability (nuclei count vs DMSO), 5 days (fraction); higher = more cells survive
[1] = compound: CCCS(=O)(=O)Nc1ccc(F)c(C(=O)c2c[nH]c3ncc(-c4ccc(Cl)cc4)cc23)c1F [Vemurafenib] + CC(=O)c1c(C)c2cnc(Nc3ccc(N4CCNCC4)cn3)nc2n(C2CCCC2)c1=O [Palbociclib] (partner 0.5 µM)
Method in brief: (§1)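 Nuclei were stained with Hoechst during a one-step fixation (final 0.05% Triton X-100, 1% formaldehyde, 1 ug/ml Hoechst) carried out 5 days after dosing, then counted on 4× images. The cells, lung cancer lines in 1536-well plates, had been dosed by pin tool the day after seeding with one drug alone or a fixed anchor-drug dose plus five library-drug doses (not always all listed) in √10 steps. Relative viability is the nuclei count in treated wells divided by that in vehicle wells, and each value is the median of duplicate plates.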

OSI-027 + Bortezomib = compound: COc1cccc2cc(-c3nc([C@H]4CC[C@H](C(=O)O)CC4)n4ncnc(N)c34)[nH]c12 [OSI-027] + CC(C)C[C@H](NC(=O)[C@H](Cc1ccccc1)NC(=O)c1cnccn1)B(O)O [Bortezomib] (partner 0.002 µM)
Method in brief: as §1

Vemurafenib + Navitoclax = compound: CCCS(=O)(=O)Nc1ccc(F)c(C(=O)c2c[nH]c3ncc(-c4ccc(Cl)cc4)cc23)c1F [Vemurafenib] + CC1(C)CCC(c2ccc(Cl)cc2)=C(CN2CCN(c3ccc(C(=O)NS(=O)(=O)c4ccc(N[C@H](CCN5CCOCC5)CSc5ccccc5)c(S(=O)(=O)C(F)(F)F)c4)cc3)CC2)C1 [Navitoclax] (partner 0.5 µM)
Method in brief: as §1

OSI-027 + Decitabine = compound: COc1cccc2cc(-c3nc([C@H]4CC[C@H](C(=O)O)CC4)n4ncnc(N)c34)[nH]c12 [OSI-027] + Nc1ncn([C@H]2C[C@H](O)[C@@H](CO)O2)c(=O)n1 [Decitabine] (partner 2 µM)
Method in brief: as §1

Cell Line | relative viability ([1]; first compound 0.03162 µM) | relative viability ([1]; first compound 0.1 µM) | relative viability ([1]; first compound 1 µM) | relative viability (OSI-027 + Bortezomib; first compound 0.01 µM) | relative viability (OSI-027 + Bortezomib; first compound 0.03162 µM) | relative viability (OSI-027 + Bortezomib; first compound 0.1 µM) | relative viability (OSI-027 + Bortezomib; first compound 0.3162 µM) | relative viability (OSI-027 + Bortezomib; first compound 1 µM) | relative viability (Vemurafenib + Navitoclax; first compound 0.03162 µM) | relative viability (Vemurafenib + Navitoclax; first compound 0.1 µM) | relative viability (Vemurafenib + Navitoclax; first compound 0.3162 µM) | relative viability (Vemurafenib + Navitoclax; first compound 1 µM) | relative viability (OSI-027 + Decitabine; first compound 0.01 µM) | relative viability (OSI-027 + Decitabine; first compound 0.03162 µM) | relative viability (OSI-027 + Decitabine; first compound 0.1 µM) | relative viability (OSI-027 + Decitabine; first compound 0.3162 µM) | relative viability (OSI-027 + Decitabine; first compound 1 µM) | relative viability ([1]; first compound 0.3162 µM)
NCI-H1792 | 0.623 | 0.581 | 0.643 | 1.03 | 0.688 | 0.858 | 0.899 | 0.212 | 0.565 | 0.61 | 0.439 | 0.593 | 0.587 | 0.434 | 0.56 | 0.499 | 0.135 | –
NCI-H1915 | 0.526 | 0.496 | 0.487 | 1.04 | 0.995 | 1.04 | 0.968 | 0.898 | 0.757 | 0.795 | 0.745 | 0.789 | 0.25 | 0.257 | 0.262 | 0.26 | 0.242 | 0.554
NCI-H1975 | 0.553 | 0.471 | 0.382 | 0.41 | 0.337 | 0.464 | 0.318 | 0.274 | 0.94 | 1.11 | 0.952 | 1.03 | 0.392 | 0.395 | 0.398 | 0.434 | 0.4 | 0.41
NCI-H1993 | 0.63 | – | 0.54 | 1.11 | 0.898 | 0.788 | 0.625 | 0.542 | 0.857 | – | 1.25 | 1.08 | 0.53 | 0.538 | 0.569 | 0.432 | 0.431 | 0.703
NCI-H2009 | 0.175 | 0.172 | 0.199 | 1.07 | 1.09 | 0.933 | 0.929 | 0.592 | 1.14 | 1.13 | 1.01 | 1.05 | 0.418 | 0.354 | 0.339 | 0.36 | 0.295 | 0.161
NCI-H2023 | 0.332 | 0.33 | 0.38 | 0.944 | 0.926 | 0.898 | 0.687 | 0.358 | 0.974 | 1.03 | 1.03 | 1.02 | 0.202 | 0.213 | 0.2 | 0.207 | 0.149 | 0.39
NCI-H2085 | 0.422 | 0.451 | 0.509 | 1.11 | 0.965 | 0.95 | 0.977 | 0.853 | 1.05 | 0.972 | 1.23 | 1.09 | 0.545 | 0.562 | 0.611 | 0.52 | 0.446 | 0.416
NCI-H2087 | 0.204 | 0.222 | 0.275 | 0.82 | 0.879 | 0.938 | 0.859 | 0.412 | 0.936 | 0.915 | – | 0.987 | 0.268 | 0.228 | 0.24 | 0.214 | 0.16 | 0.266
NCI-H2126 | 0.328 | 0.354 | 0.333 | 1.02 | 1.13 | 1.05 | 0.989 | 0.87 | 0.808 | 0.778 | 0.825 | 0.83 | 0.558 | 0.553 | 0.565 | 0.523 | 0.601 | 0.344
NCI-H2347 | 0.427 | 0.429 | 0.498 | 0.857 | 0.904 | 0.741 | 0.601 | 0.493 | 0.633 | 0.78 | 0.7 | 0.75 | 0.639 | 0.635 | 0.621 | 0.577 | 0.454 | 0.44
NCI-H2405 | 0.493 | 0.536 | 0.58 | 0.982 | 1.04 | 0.872 | 0.866 | 0.425 | 0.836 | 0.812 | – | 0.864 | 0.688 | 0.74 | 0.709 | 0.634 | 0.451 | –
NCI-H3122 | 0.177 | 0.172 | 0.178 | 1.11 | 1.04 | 1.11 | 1.02 | 0.87 | 1.04 | 0.993 | 1.02 | 1.1 | 0.415 | 0.547 | 0.457 | 0.345 | 0.154 | 0.206
PC-3 [JPC-3] | – | – | 0.565 | 0.816 | 0.731 | 0.807 | 0.877 | 0.815 | 0.728 | – | 0.936 | 0.788 | 0.769 | 0.841 | 0.768 | 0.684 | 0.628 | 0.485
PC-14 | 0.449 | – | 0.537 | 1.03 | 0.93 | 0.955 | 0.989 | 0.652 | 0.915 | – | 0.977 | 0.937 | 0.208 | 0.278 | 0.239 | 0.231 | 0.217 | 0.504
RERF-LC-KJ | 1.03 | 0.968 | 1.11 | 1.18 | 0.948 | 1.03 | 0.808 | 0.511 | 1.05 | 1.04 | 0.977 | 1.29 | 0.617 | 0.664 | 0.668 | 0.538 | 0.426 | 1.07
SK-LU-1 | 0.388 | 0.377 | 0.337 | 1.01 | 1.26 | 0.75 | 0.655 | 0.404 | 0.914 | 0.74 | 0.751 | 0.564 | 0.594 | 0.631 | 0.663 | 0.483 | 0.406 | 0.368
SW 1573 | 0.203 | 0.435 | 0.383 | 1.18 | 0.897 | 0.831 | 0.776 | 0.732 | 0.927 | 1.12 | 1.09 | 0.934 | 0.411 | 0.535 | 0.438 | 0.388 | 0.284 | 0.382
